In patent US20160166560A1, “Urea Compounds and Their Use as FAAH Enzyme Inhibitors” (BIAL-PORTELA & Cª, S.A., priority 2013, published 2016):
Structures can show the parent of a compound that is named as a salt.

Key:
CYPs = CYPs metabolic stability assay in HLM (human liver microsomes); assay type: in vitro ADME; settings: HLM 1 mg/ml protein, compound 5 μM, 60 min, 37° C.; for Control (% remain): absence of NADPH; for CYP+ (% remain): with NADPH 1 mM
Procedure: Stability of the test compounds was performed in HLM (human liver microsomes) in the presence and in the absence of NADPH.
The stability was measured using the incubation mixture (100 μl total volume) contained 1 mg/ml total protein, MgCl2 5 mM and 50 mM K-phosphate buffer. Samples were incubated in the presence and in the absence of NADPH 1 mM. Reactions were pre-incubated 5 min and the reaction initiated with the compound under test (at a concentration of 5 μM). Samples were incubated for 60 min in a shaking water bath at 37° C. The reaction was stopped by adding 100 μl of acetonitrile. Samples were then centrifuged, filtered and supematant injected in HLPC-MSD. Test compounds were dissolved in DMSO and the final concentration of DMSO in the reaction was below 0.5% (v/v). At T0 acetonitrile was added before adding the compound. All experiments were performed with samples in duplicate.

FAAH [1] = molecular target: T1, FAAH (Mus musculus, UniProt O08914); experiment: In vitro/ex vivo FAAH activity determination in brain after intra-tracheal instillation; design: Liver and brain fragments were removed and processed for enzymatic activity determination; from tissue; species or system male NMRI mice; settings: remaining enzymatic activity vs controls, 1 mg/kg intra-tracheal instillation, sacrificed after 8 h
T1 sequence (O08914 1-579): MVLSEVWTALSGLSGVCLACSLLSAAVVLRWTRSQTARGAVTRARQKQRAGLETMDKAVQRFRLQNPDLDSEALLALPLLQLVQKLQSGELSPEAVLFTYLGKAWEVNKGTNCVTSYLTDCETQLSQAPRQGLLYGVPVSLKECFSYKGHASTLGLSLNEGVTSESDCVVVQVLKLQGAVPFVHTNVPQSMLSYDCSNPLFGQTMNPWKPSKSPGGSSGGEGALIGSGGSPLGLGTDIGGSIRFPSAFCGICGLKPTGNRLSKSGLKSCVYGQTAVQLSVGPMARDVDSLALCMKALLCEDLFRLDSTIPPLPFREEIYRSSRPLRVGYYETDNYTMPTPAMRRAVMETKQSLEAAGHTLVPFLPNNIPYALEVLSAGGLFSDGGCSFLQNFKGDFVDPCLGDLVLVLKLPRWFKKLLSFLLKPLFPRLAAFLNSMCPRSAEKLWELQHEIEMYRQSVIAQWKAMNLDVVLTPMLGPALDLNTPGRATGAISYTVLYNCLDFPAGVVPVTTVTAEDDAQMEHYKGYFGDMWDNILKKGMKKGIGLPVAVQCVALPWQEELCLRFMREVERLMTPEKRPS
Procedure: (§1) To evaluate the selectivity of test compounds in inhibiting FAAH activity, male NMRI mice were administrated following instillation with 1 mg/kg compound and were sacrificed after 8 h treatment. Liver and brain fragments were removed and processed for enzymatic activity determination.
(§2) FAAH activity was measured as the amount of ^3H-ethanolamine formed, by liquid scintillation counting, from the hydrolysis of the substrate anandamide (AEA, labeled with ^3H on the ethanolamine part of the molecule). The percentage of remaining enzymatic activity was calculated in respect to controls and after blank subtraction. Therefore, a low value for the test compounds indicates a strong inhibitor.
(§3) Male NMRI mice (body weight range: 25-35 g) were obtained from Harlan Laboratories (Barcelona, Spain). Animals were kept 10 per cage, under controlled environmental conditions (12 hr light [8 am]/12 hr dark [8 pm]cycle; room temperature 22±1° C.). Food and tap water were allowed ad libitum. Animals were habituated to the animal facilities at least for a week prior to experiments. The experiments were all carried out during daylight hours.
(§4) Animals were fasted overnight before administration of compounds. […] After administration the animals were given atipamezole (1 mg/kg) to reverse the sedative and analgesic effects induced by the anaesthesia.
(§5) Fifteen minutes before sacrifice, animals were anesthetized with pentobarbital 60 mg/kg administrated intra-peritoneally. The brain (without cerebellum) and a fragment of liver were collected into plastic vials containing membrane buffer (3 mM MgCl2, 1 mM EDTA, 50 mM Tris HCl, pH 7.4). Glass beads (2.5 mm BioSpec Products, Bartlesville, Okla., USA) were added to the vials containing the brain and liver tissues. Tissues were stored at −20° C. until analysis.
(§6) Anandamide [ethanolamine-1-^3H-] was obtained from American Radiochemicals—with a specific activity of 60 Ci/mmol. All other reagents were obtained from Sigma-Aldrich. Optiphase Supermix was obtained from Perkin Elmer.
(§7) Brain and liver tissues were thawed and homogenized in 10 volumes of membrane buffer (3 mM MgCl2, 1 mM EDTA, 50 mM Tris HCl, pH 7.4) with homogenizer Precellys 24 Dual Tissue Homogenizer (Bertin Technologies) for 2 cycles of 5 sec (5000 rpm).
(§8) Total protein in the tissue homogenates was determined with the BioRad Protein Assay (BioRad) using a standard curve of BSA ([…]). Tissue homogenates were diluted to appropriate concentration for enzymatic determination in assay buffer (1 mM EDTA, 10 mM Tris HCl, pH 7.6).
(§9) Reaction mix (total volume 200 μL) contained 2 μM AEA (2 μM AEA+5 nM ^3H-AEA), 0.1% fatty acid free BSA, 15 μg (brain) or 5 μg (liver) protein, in assay buffer (1 mM EDTA, 10 mM Tris pH 7.6).
(§10) The test compound was used at a level of 1 mg/kg protein. After 15 minutes pre-incubation at 37° C. of the protein sample, reaction was started by the addition of the substrate solution (cold AEA+radiolabelled AEA+BSA). Reaction was carried out for 12 minutes for brain and liver tissues. Reaction was terminated by addition of 400 μL chloroform:methanol (1:1, v/v) solution. Reaction samples were vortex twice, left on ice for 5 minutes and then centrifuged in the microfuge for 7 minutes, 7000 rpm. 200 μL of the obtained supernatants were added to […] Optiphase Supermix scintillation cocktail previously distributed in 24-well plates.
(§11) Counts per minute (cpm) were determined in a Microbeta TriLux scintillation counter. In each assay blank samples (without protein) were prepared.

FAAH [2] = molecular target: T1, FAAH; experiment: In vitro/ex vivo FAAH activity determination in liver after intra-tracheal instillation; design: Liver and brain fragments were removed and processed for enzymatic activity determination; from tissue; host or cells: mouse liver fragment homogenate; species or system male NMRI mice; settings: remaining enzymatic activity vs controls, 1 mg/kg intra-tracheal instillation, sacrificed after 8 h
Procedure: as §1, §2, §3, §4, §5, §6, §7, §8, §9, §10, §11

Structure (SMILES)	Control (% remain) (CYPs)	CYP+ (% remain) (CYPs)	FAAH Activity - Brain itc (% C) (FAAH [1])	FAAH Activity - Liver itc (% C) (FAAH [2])	also measured
CN(C(=O)n1cnc(-c2cccc(NS(C)(=O)=O)c2)c1)C1CCN(Cc2ccccc2)CC1 [Example 1, N-(1-benzylpiperidin-4-yl)-N-methyl-4-(3-(methylsulfonamido)phenyl)-1H-imidazole-1-carboxamide hydrochloride]	111.4	30.2	79.0	3.2	
CN(C(=O)n1cnc(-c2cccc(NS(N)(=O)=O)c2)c1)C1CCN(Cc2ccccc2)CC1 [Example 2, N-(1-benzylpiperidin-4-yl)-N-methyl-4-(3-(sulfamoylamino)phenyl)-1H-imidazole-1-carboxamide hydrochloride]	98.3	68.6	86.8	5.1	
CN(C(=O)n1cnc(-c2cccc(OS(N)(=O)=O)c2)c1)C1CCN(c2ccccc2)CC1 [Example 6, 3-(1-(methyl(1-phenylpiperidin-4-yl)carbamoyl)-1H-imidazol-4-yl)phenyl sulfamate hydrochloride]	88.7	12.0	82.1	1.7	
CN(C(=O)n1cnc(-c2cccc(OS(N)(=O)=O)c2)c1)C1CCN(Cc2ccccc2)CC1 [Example 7, 3-(1-((1-benzylpiperidin-4-yl)(methyl)carbamoyl)-1H-imidazol-4-yl)phenyl sulfamate hydrochloride]	92.6	65.0	87.2	3.5	
COc1cc(CN2CCC(N(C)C(=O)n3cnc(-c4ccc(OS(N)(=O)=O)cc4)c3)CC2)cc(OC)c1 [Example 8, 4-(1-((1-(3,5-dimethoxybenzyl)piperidin-4-yl)(methyl)carbamoyl)-1H-imidazol-4-yl)phenyl sulfamate hydrochloride]					Control (% remain) (CYPs; hydrochloride): 93.2 % remain; CYP+ (% remain) (CYPs; hydrochloride): 25.2 % remain; FAAH Activity - Brain itc (% C) (FAAH [1]; hydrochloride, 1 mg/kg): 97.6 % C; FAAH Activity - Liver itc (% C) (FAAH [2]; hydrochloride, 1 mg/kg): 5.4 % C
COc1cccc(CN2CCC(N(C)C(=O)n3cnc(-c4cccc(C(N)=O)c4)c3)CC2)c1 [Example 13, 4-(3-carbamoylphenyl)-N-(1-(3-methoxybenzyl)piperidin-4-yl)-N-methyl-1H-imidazole-1-carboxamide hydrochloride]	103.5	25.1			
COc1cc(CN2CCC(N(C)C(=O)n3cnc(-c4ccc(OS(N)(=O)=O)cc4)c3)CC2)cc(OC)c1 [Example 19, 4-(1-((1-(3,5-dimethoxybenzyl)piperidin-4-yl)(methyl)carbamoyl)-1H-imidazol-4-yl)phenyl sulfamate maleate]					FAAH Activity - Brain itc (% C) (FAAH [1]; maleate, 1 mg/kg): 99.2 % C; FAAH Activity - Liver itc (% C) (FAAH [2]; maleate, 1 mg/kg): 9.2 % C
CN(C(=O)n1cnc(-c2cccc(NC(N)=O)c2)c1)C1CCN(Cc2ccccc2)CC1 [Example 22, N-(1-benzylpiperidin-4-yl)-N-methyl-4-(3-ureidophenyl)-1H-imidazole-1-carboxamide methanesulfonate]					FAAH Activity - Brain itc (% C) (FAAH [1]; methanesulfonate, 1 mg/kg): 113.8 % C; FAAH Activity - Liver itc (% C) (FAAH [2]; methanesulfonate, 1 mg/kg): 10.7 % C

More lines, main results first:

Control (% remain) (CYPs)	CYP+ (% remain) (CYPs)	FAAH Activity - Brain itc (% C) (FAAH [1])	FAAH Activity - Liver itc (% C) (FAAH [2])	Structure (SMILES)	also measured
100	11.2	98.7	7.2	COc1cccc(CN2CCC(N(C)C(=O)n3cnc(-c4cccc(NS(C)(=O)=O)c4)c3)CC2)c1 [Example 4, N-(1-(3-methoxybenzyl)piperidin-4-yl)-N-methyl-4-(3-(methylsulfonamido)phenyl)-1H-imidazole-1-carboxamide hydrochloride]	
100	77.3	104.7	5.7	COc1ccc(CN2CCC(N(C)C(=O)n3cnc(-c4cccc(NS(C)(=O)=O)c4)c3)CC2)cc1OC [Example 5, N-(1-(3,4-dimethoxybenzyl)piperidin-4-yl)-N-methyl-4-(3-(methylsulfonamido)phenyl)-1H-imidazole-1-carboxamide hydrochloride]	
		86.4	15.8	COc1cccc(CN2CCC(N(C)C(=O)n3cnc(-c4cccc(NS(N)(=O)=O)c4)c3)CC2)c1.O=C(O)/C=C\C(=O)O.O=C(O)/C=C\C(=O)O [Example 20, N-(1-(3-methoxybenzyl)piperidin-4-yl)-N-methyl-4-(3-(sulfamoylamino)phenyl)-1H-imidazole-1-carboxamide dimaleate]	
		94.4	8.6	CN(C(=O)n1cnc(-c2cccc(C(N)=O)c2)c1)C1CCN(Cc2ccccc2O)CC1 [Example 36, 4-(3-carbamoylphenyl)-N-(1-(2-hydroxybenzyl)piperidin-4-yl)-N-methyl-1 H-imidazole-1-carboxamide hydrochloride]	
		110.2	3.4	CN(C(=O)n1cnc(-c2cccc(C(N)=O)c2)c1)C1CCN(c2ccccc2O)CC1 [Example 37, 4-(3-carbamoylphenyl)-N-(1-(2-hydroxyphenyl)piperidin-4-yl)-N-methyl-1H-imidazole-1-carboxamide hydrochloride]	
		96.5	6.0	COc1ccccc1CN1CCC(N(C)C(=O)n2cnc(-c3cccc(C(N)=O)c3)c2)CC1 [Example 38, 4-(3-carbamoylphenyl)-N-(1-(2-methoxybenzyl)piperidin-4-yl)-N-methyl-1H-imidazole-1-carboxamide hydrochloride]	
